Assay results as given in patent publication US7045528B2, “Benzofused heterozryl amide derivatives of thienopyridines useful as therapeutic agents, pharmaceutical compositions including the same, and methods for their use” (Agouron Pharmaceuticals, Inc., priority 2002, dated 2006).

Key:
[1] = molecular target: T1, unphosphorylated VEGF-R2Δ50 (FLVK) (Homo sapiens, UniProt P35968, DEL940-989/E990V); assay: VEGF-R2 coupled spectrophotometric assay, unphosphorylated VEGF-R2Δ50 (FLVK); type: biochemical; settings: unphosphorylated VEGF-R2Δ50; for inhibition at 0.05 µM: 50 nM compound, read-out: FLVK (% inh @ 50 nM)
T1 construct: VEGF-R2Δ50 contains residues 806–939 and 990–1171; made in house; host or cells: baculovirus/insect cell system
Outline: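 Baculovirus-expressed human VEGF-R2Δ50 (kinase insert partly deleted, E990V), unphosphorylated form; ADP production coupled via PK/LDH to NADH oxidation, read at 340 nm. 20 mM poly(E4Y1), 3 mM ATP, 60 mM MgCl2, 2 mM MnCl2, 200 mM HEPES pH 7.5; 5–40 nM enzyme. Ki from Morrison tight-binding fit.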

[2] = test system: human umbilical vein endothelial cells (HUVEC); assay: HUVEC+VEGF proliferation assay; type: cell-based; settings: Homo sapiens, HUVEC; VEGF 6 ng/mL, 72 h, MTT
Protocol: HUVEC+VEGF Proliferation Assay
This assay determines the ability of a test compound to inhibit the growth factor-stimulated proliferation of human umbilical vein endothelial cells (“HUVEC”). HUVEC cells (passage 3–4; Clonetics, Corp.) were thawed into EGM2 culture medium (Clonetics Corp) in T75 flasks. Fresh EGM2 medium was added to the flasks 24 hours later. Four or five days later, cells were exposed to another culture medium (F12K medium supplemented with 10% fetal bovine serum (FBS), 60 μg/mL endothelial cell growth supplement (ECGS), and 0.1 mg/mL heparin). Exponentially-growing HUVEC cells were used in experiments thereafter. Ten to twelve thousand HUVEC cells were plated in 96-well dishes in 100 μl of rich, culture medium (described above). The cells were allowed to attach for 24 hours in this medium. The medium was then removed by aspiration and 105 μl of starvation media (F12K+1% FBS) was added to each well. After 24 hours, 15 μl of test agent dissolved in 1% DMSO in starvation medium or this vehicle alone was added into each treatment well; the final DMSO concentration was 0.1%. One hour later, 30 μl of VEGF (30 ng/mL) in starvation media was added to all wells except those containing untreated controls; the final VEGF concentration was 6 ng/mL. Cellular proliferation was quantified 72 hours later by MTT dye reduction, at which time cells were exposed for 4 hours MTT (Promega Corp.). Dye reduction was stopped by addition of a stop solution (Promega Corp.) and absorbance at 595 nm was determined on a 96-well spectrophotometer plate reader.

Huvec = assay: bFGF Huvec proliferation; type: cell-based, human; settings: Homo sapiens, HUVEC
PDGFRβ = molecular target: T2, PDGFRβ (Homo sapiens, UniProt P09619); assay: PAE-PDGFRβ phosphorylation in PAE-PDGFRB cells assay; type: cell-based; settings: PAE cells overexpressing human PDGFRβ, PDGF-BB stimulated; read-out: PAE PDGFR autophos IC50 (nM) AVG
T2 construct: expressed in transfected cells; host or cells: porcine aorta endothelial (PAE)-PDGFRβ cells
Outline: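 PAE cells overexpressing human PDGFRβ, serum-starved 16 h (0.1% FBS), were given compound for 1 h at 37 °C (0.5% DMSO) and then stimulated with 1 μg/mL PDGF-BB plus 2 mM Na3VO4 for 8 min. Receptor autophosphorylation was read by capture ELISA (HRP-PY20, TMB, 450 nm); IC50 from 4-parameter fit.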

T1 sequence (P35968 with tags, fused parts or gaps DEL940-989/E990V limits assumed): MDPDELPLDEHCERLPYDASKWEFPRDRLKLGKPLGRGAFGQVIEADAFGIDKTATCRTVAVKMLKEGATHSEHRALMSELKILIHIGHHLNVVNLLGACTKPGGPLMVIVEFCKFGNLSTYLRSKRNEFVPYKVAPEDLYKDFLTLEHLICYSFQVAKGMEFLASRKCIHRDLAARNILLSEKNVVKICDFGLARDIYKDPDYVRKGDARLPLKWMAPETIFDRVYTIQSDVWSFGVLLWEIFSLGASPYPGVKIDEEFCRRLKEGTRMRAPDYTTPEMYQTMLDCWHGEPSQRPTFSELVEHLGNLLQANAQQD
T2 sequence (P09619 33-1106): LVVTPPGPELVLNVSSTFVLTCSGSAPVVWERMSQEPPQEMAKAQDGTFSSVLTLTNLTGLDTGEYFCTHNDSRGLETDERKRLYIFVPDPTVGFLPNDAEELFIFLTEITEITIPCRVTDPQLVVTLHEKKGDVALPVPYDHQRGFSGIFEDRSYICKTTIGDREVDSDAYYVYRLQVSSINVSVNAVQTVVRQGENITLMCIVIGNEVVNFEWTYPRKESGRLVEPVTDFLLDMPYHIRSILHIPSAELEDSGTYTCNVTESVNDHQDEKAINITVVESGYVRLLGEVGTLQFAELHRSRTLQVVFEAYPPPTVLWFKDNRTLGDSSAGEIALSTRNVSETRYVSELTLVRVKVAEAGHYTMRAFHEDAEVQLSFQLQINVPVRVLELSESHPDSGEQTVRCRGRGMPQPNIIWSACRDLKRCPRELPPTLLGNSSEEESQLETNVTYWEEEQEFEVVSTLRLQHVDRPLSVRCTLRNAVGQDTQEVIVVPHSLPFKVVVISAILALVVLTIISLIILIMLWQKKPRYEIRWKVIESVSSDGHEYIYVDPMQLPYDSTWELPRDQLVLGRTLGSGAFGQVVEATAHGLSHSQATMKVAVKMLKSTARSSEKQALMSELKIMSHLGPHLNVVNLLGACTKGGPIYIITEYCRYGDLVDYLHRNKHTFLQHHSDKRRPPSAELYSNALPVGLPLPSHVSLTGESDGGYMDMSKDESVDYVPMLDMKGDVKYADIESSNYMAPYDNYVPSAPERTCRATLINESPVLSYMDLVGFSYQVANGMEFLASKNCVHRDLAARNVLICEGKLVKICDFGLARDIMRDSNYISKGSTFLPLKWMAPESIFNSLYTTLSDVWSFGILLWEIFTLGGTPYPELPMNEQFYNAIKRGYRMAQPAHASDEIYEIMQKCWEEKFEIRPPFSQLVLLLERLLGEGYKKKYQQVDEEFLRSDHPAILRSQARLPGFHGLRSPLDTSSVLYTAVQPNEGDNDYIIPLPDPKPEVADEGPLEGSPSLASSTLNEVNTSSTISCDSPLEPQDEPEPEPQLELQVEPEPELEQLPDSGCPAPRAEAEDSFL

| inhibition at 0.05 µM [1] [%] | Ki [1] [nM] | IC50 (PDGFRβ) [nM] | Compound | IC50 [2] [nM] | IC50 (Huvec) [nM] |
| --- | --- | --- | --- | --- | --- |
| 94 | 0.356 | 16.5 | CO[C@@H]1CCN(C(=O)c2cc3nccc(Oc4ccc5c(C(=O)NCC6CC6)c(C)oc5c4)c3s2)C1 [Example 91, 6-[2-(q-Methoxy-pyrrolidine-1-carbonyl)-thieno[3,2-b]pyridin-7-yloxy]-2-methyl-benzofuran-3-carboxylic acid cyclopropylmethyl-amide] | 0.168 | 250 |
| 95 | 0.438 | 31 | CNC(=O)c1c(C)oc2cc(Oc3ccnc4cc(C(=O)N5CCC[C@H]5CO)sc34)ccc12 [Example 80, 6-(2-[(S)-2-(hydroxymethyl)pyrrolidine-1-carbonyl]thieno[3,2-b]pyridin-7-yloxy)-2-methyl-benzofuran-3-carboxylic acid methylamide] | 0.239 | 60 |
| 95 | 0.219 | 179 | CO[C@@H]1CCN(C(=O)c2cc3nccc(Oc4ccc5c(C(=O)NCC6CC6)c(C)sc5c4)c3s2)C1 [Example 125, 6-[(2-{[(3R)-3-Methoxypyrrolidin-1-yl]carbonyl}thieno[3,2-b]pyridin-7-yl)oxy]-2-methylbenzo[b]thiophene-3-carboxylic acid (cyclopropylmethyl)amide] | 2 | 969 |
| 98 | 0.2 | 28.8 | Cc1oc2cc(Oc3ccnc4cc(-c5nccn5C)sc34)ccc2c1C(=O)NC(C)C [Example 83, 2-Methyl-6-[2-(1-methyl-1H-imidazol-2-yl)-thieno[3,2-b]pyridin-7-yloxy]-benzofuran-3-carboxylic acid isopropyl amide] | 0.77 | 142 |
| 63 | 6 | 74 | CNC(=O)c1c(C)n(C)c2cc(Oc3ccnc4cc(C(=O)N5CC(O)C5)sc34)ccc12 [Example 30, 6-[2-(3-Hydroxy-azetidine-1-carbonyl)-thieno[3,2-b]pyridin-7-yloxy]-1,2-dimethyl-1H-indole-3-carboxylic acid methylamide] | 33.6 | 10000 |
| 94 | 0.2 | 220 | Cc1sc2cc(Oc3ccnc4cc(C(=O)N5CC[C@@H](O)C5)sc34)ccc2c1C(=O)NC1CC1 [Example 121, 6[(2-{[(3R)-3-Hydroxypyrrolidin-1-yl]carbonyl}thieno[3,2-b]pyridin-7-yl)oxy]-2-methylbenzo[b]thiophene-3-carboxylic acid cyclopropylamide] | 0.24 | 100 |
| 70 | 4.84 | 293 | CCc1oc2cc(Oc3ccnc4cc(C(=O)N5CCC[C@H]5CO)sc34)ccc2c1C(=O)NC [Example 97, 2-ethyl-6(2-[(S)-2-(hydroxymethyl)pyrrolidine-1-carbonyl]thieno[3,2-b]pyridin-7-yloxy)-benzofuran-3-carboxylic acid methylamide] | 10 | 223 |
| 90 | 0.276 | 15.5 | CNC(=O)c1c(C)oc2cc(Oc3ccnc4cc(C(=O)N5CCC[C@H]5COC)sc34)ccc12 [Example 79, 6-(2-[(S)-2-(methoxymethyl)pyrrolidine-1-carbonyl]thieno[3,2-b]pyridin-7-yloxy)-2-methyl-benzofuran-3-carboxylic acid methyl amide] | 0.223 | 130 |
| 95 | 0.39 | 335 | Cc1sc2cc(Oc3ccnc4cc(-c5nc(CO)cs5)sc34)ccc2c1C(=O)NCC1CC1 [Example 130] | 0.49 | 100 |
| 94 | 0.58 | 12.4 | Cc1oc2cc(Oc3ccnc4cc(-c5nccn5C)sc34)ccc2c1C(=O)NCC(C)C [Example 84, 2-Methyl-6-[2-(1-methyl-1H-imidazol-2-yl)-thieno[3,2-b]pyridin-7-yloxy]-benzofuran-3-carboxylic acid isobutyl amide] | 0.322 | 429 |

The remaining lines, values behind:

| Compound | inhibition at 0.05 µM [1] [%] | Ki [1] [nM] | IC50 (PDGFRβ) [nM] | IC50 [2] [nM] | IC50 (Huvec) [nM] |
| --- | --- | --- | --- | --- | --- |
| CCc1oc2cc(Oc3ccnc4cc(-c5nccn5C)sc34)ccc2c1C(=O)NC [Example 94, 2-Ethyl-6[2-(1-methyl-1H-imidazol-2-yl)-thieno[3,2-b]pyridin-7-yloxy]-benzofuran-3-carboxylic acid methylamide] | 81 | 1.45 | 112 | 0.7 | 251 |
| CCc1sc2cc(Oc3ccnc4cc(-c5nccn5C)sc34)ccc2c1C(=O)NC [Example 134, 2-Ethyl 6-{[2-(1-methyl-1H-imidazol-2-yl)thieno[3,2-b]pyridin-7-yl]oxy}benzo[b]thiophene-3-carboxylic acid methylamide] | 94 | 1.44 | 177 | 0.656 | 1070 |
| Cc1oc2cc(Oc3ccnc4cc(C(=O)N5CC[C@@H](O)C5)sc34)ccc2c1C(=O)NCC(C)C [Example 88, 2-Methyl-6[2-(3-hydroxy-pyrrolidine-1-carbonyl)-thieno[3,2-b]pyridin-7-yloxy]-benzofuran-3-carboxylic acid isobutyl amide] | 94 | 0.574 | 15.1 | 0.46 | 363 |
| Cc1c(C(=O)NC2CC2)c2ccc(Oc3ccnc4cc(C(=O)N5CC[C@@H](O)C5)sc34)cc2n1C [Example 53, 6-[2-((R)-3-Hydroxy-pyrrolidine-1-carbonyl)-thieno[3,2-b]pyridin-7-yloxy]-1,2-dimethyl-1H-indole-3-carboxylic acid cyclopropylamide] | 93 | 1.07 | 229 | 1.8 | 7230 |
| Cc1c(C(=O)Nc2ccccn2)c2ccc(Oc3ccnc4cc(-c5nccn5C)sc34)cc2n1C [Example 69, 1,2-Dimethyl-6-[2-(1-methyl-1H-imidazol-2-yl)-thieno[3,2-b]pyridin-7-yloxy]-1H-indole-3-carboxylic acid pyridin-2-ylamide] | 95 | 0.3 | 6.52 | 0.57 | 4310 |
| COC[C@@H]1CCCN1C(=O)c1cc2nccc(Oc3ccc4c(C(=O)NCC(C)C)c(C)oc4c3)c2s1 (stereo in doubt) [Example 85, 6[2-(2-Methoxymethyl-pyrrolidine-1-carbonyl)-thieno[3,2-b]pyridin-7-yloxy]-2-methyl-benzofuran-3-carboxylic acid isobutyl amide] | 83 | 1.71 | 27.3 | 3.92 | 6990 |
| CNC(=O)c1c(C)n(C)c2cc(Oc3ccnc4cc(-c5nccs5)sc34)ccc12 [Example 41, 1,2-Dimethyl-6-(2-thiazol-2-yl-thieno[3,2-b]pyridin-7-yloxy)-1H-indole-3-carboxylic acid methylamide] | 71 | 3.3 | 22.1 | 3.7 | 1220 |
| CNC(=O)c1c(C)oc2cc(Oc3ccnc4cc(C(=O)N5CCC5)sc34)ccc12 [Example 77, 6[2-(Azetidine-1-carbonyl)-thieno[3,2-b]pyridin-7-yloxy]-2-methyl-benzofuran-3-carboxylic acid methylamide] | 99 | 0.2 | 7.4 | 0.2 | 8 |
| Cc1sc2cc(Oc3ccnc4cc(C(=O)N5CCC5)sc34)ccc2c1C(=O)NCC1CC1 [Example 131, 6-{[2-(Azetidin-1-ylcarbonyl)thieno[3,2-b]pyridin-7-yl]oxy}-2-methylbenzo[b]thiophene-3-carboxylic acid (cyclopropylmethyl)amide] | 96 | 0.2 | 97 | 1.89 | 260 |
